# In PubChem BioAssay AID588641 (Sanford-Burnham Center for Chemical Genomics, 2011):
# Active and inactive are the calls of the source. The rule behind the calls is not given here.
# Target: alkaline phosphatase, placental type (human)
# Experiment: PLAP enzyme inhibition by analogs, SAR follow-up, selectivity assay for mouse IAP inhibitor project, biochemical, human PLAP isozyme, set 2 (AID 588641)
# Conditions: purified human placental alkaline phosphatase, enzyme activity
row,Compound,IC50
1,COc1ccc(NC(=O)CCNS(=O)(=O)c2ccc3c(c2)CCC3)cc1OC,> 100 µM (inactive)
2,CC(C)Oc1ccc(CNC(=O)C2CCCN(S(=O)(=O)c3ccc4[nH]c(=O)oc4c3)C2)cc1 (stereo unspecified),> 100 µM (inactive)
3,Cc1ccc(NC(=O)CCNS(=O)(=O)c2ccc3[nH]c(=O)oc3c2)cc1C,> 100 µM (inactive)
4,COc1ccc(/C=N/NC(=O)c2cc(O)c(O)c(O)c2)c(OC)c1,> 100 µM (inactive)
5,N#Cc1cccc(NC(=O)CNS(=O)(=O)c2ccc3[nH]c(=O)oc3c2)c1,> 100 µM (inactive)
6,COc1ccc(OC)c(NC(=O)CCNS(=O)(=O)c2ccc3c(c2)oc(=O)n3C)c1,> 100 µM (inactive)
7,CCc1ccc(NC(=O)CCNS(=O)(=O)c2ccc3c(c2)oc(=O)n3C)cc1,> 100 µM (inactive)
8,O=C(CCNS(=O)(=O)c1ccc2[nH]c(=O)oc2c1)NCc1ccccc1,> 100 µM (inactive)
9,COc1cccc(CNC(=O)CNS(=O)(=O)c2ccc3[nH]c(=O)oc3c2)c1,> 100 µM (inactive)
10,O=C(N/N=C/c1ccc(Cl)c(Cl)c1)c1cc(O)c(O)c(O)c1,> 100 µM (inactive)
11,O=C(CCNS(=O)(=O)c1ccc2[nH]c(=O)oc2c1)NCc1ccc(C(F)(F)F)cc1,> 100 µM (inactive)
12,COc1cccc(NC(=O)CCNS(=O)(=O)c2ccc3c(c2)oc(=O)n3C)c1,> 100 µM (inactive)
13,O=C(CCNS(=O)(=O)c1ccc2[nH]c(=O)oc2c1)NCc1ccc(O)c(O)c1,> 100 µM (inactive)
14,O=C(N/N=C/c1c(Cl)cccc1Cl)c1cc(O)c(O)c(O)c1,> 100 µM (inactive)
15,CC(C)c1ccc(/C=N/NC(=O)c2cc(O)c(O)c(O)c2)cc1,> 100 µM (inactive)
16,N#Cc1cccc(NS(=O)(=O)c2ccc3[nH]c(=O)oc3c2)c1,> 100 µM (inactive)
17,Cc1ccc(NC(=O)CCNS(=O)(=O)c2ccc3c(c2)oc(=O)n3C)cc1C,> 100 µM (inactive)
18,N#Cc1cccc(CNC(=O)CCNS(=O)(=O)c2ccc3[nH]c(=O)oc3c2)c1,> 100 µM (inactive)
19,O=C(CCNS(=O)(=O)c1ccc2[nH]c(=O)oc2c1)NCc1cccc(F)c1,> 100 µM (inactive)
20,Cc1ccc(C)c(NC(=O)C2CCCN(S(=O)(=O)c3ccc4c(c3)oc(=O)n4C)C2)c1 (stereo unspecified),> 100 µM (inactive)
21,CCc1ccc(NC(=O)C2CCCN(S(=O)(=O)c3ccc4c(c3)oc(=O)n4C)C2)cc1 (stereo unspecified),> 100 µM (inactive)
22,COc1ccc(/C=N\NC(=O)c2cc(O)c(O)c(O)c2)cc1CN1CCN(c2ccc(F)cc2)CC1,> 100 µM (inactive)

row,Compound,IC50
1,O=C(CCS(=O)(=O)Nc1ccc2[nH]c(=O)oc2c1)NCc1cccc(Cl)c1,> 100 µM (inactive)
2,COc1ccc(NC(=O)CCNS(=O)(=O)c2ccc3ccccc3c2)cc1OC,> 100 µM (inactive)
3,COc1ccc(CNC(=O)CCNS(=O)(=O)c2ccc3ccccc3c2)c(OC)c1,> 100 µM (inactive)
4,Cc1ccc(C)c(NC(=O)CCNS(=O)(=O)c2ccc3[nH]c(=O)oc3c2)c1,> 100 µM (inactive)
5,O=C(CCNS(=O)(=O)c1ccc2[nH]c(=O)oc2c1)NCc1ccccc1F,> 100 µM (inactive)
6,O=C(CCNS(=O)(=O)c1ccc2[nH]c(=O)oc2c1)NCCc1ccc2c(c1)OCO2,> 100 µM (inactive)
7,O=c1[nH]c2ccc(S(=O)(=O)NCc3ccc4c(c3)OCO4)cc2o1,> 100 µM (inactive)
8,O=C(CCCNS(=O)(=O)c1ccc2[nH]c(=O)oc2c1)NCc1ccc2c(c1)OCO2,> 100 µM (inactive)
9,COc1ccc(CNS(=O)(=O)c2ccc3[nH]c(=O)oc3c2)c(OC)c1,> 100 µM (inactive)
10,O=C(NN=Cc1ccccc1F)c1ccc(O)cc1,> 100 µM (inactive)
11,COc1ccc(CNC(=O)CNS(=O)(=O)c2ccc3[nH]c(=O)oc3c2)c(OC)c1,> 100 µM (inactive)
12,O=c1[nH]c2ccc(S(=O)(=O)Nc3ccc4c(c3)OCO4)cc2o1,> 100 µM (inactive)
13,COc1ccc(CNC(=O)C2CCCN(S(=O)(=O)c3ccc4[nH]c(=O)oc4c3)C2)cc1 (stereo unspecified),> 100 µM (inactive)
14,O=C(N/N=C/c1ccc(F)c(Br)c1)c1cc(O)c(O)c(O)c1,> 100 µM (inactive)
15,COc1ccc(CCNC(=O)CCCNS(=O)(=O)c2ccc3[nH]c(=O)oc3c2)cc1OC,> 100 µM (inactive)
16,O=C(N/N=C/c1ccccc1F)c1ccccc1OCc1ccccc1,> 100 µM (inactive)
17,O=C(NCc1ccc2c(c1)OCO2)C1CCCN(S(=O)(=O)c2ccc3[nH]c(=O)oc3c2)C1 (stereo unspecified),> 100 µM (inactive)
18,Cc1ccc(C)c(NC(=O)CCNS(=O)(=O)c2ccc3c(c2)CCC3)c1,> 100 µM (inactive)
19,O=C(CCS(=O)(=O)Nc1ccc2[nH]c(=O)oc2c1)NCc1cccc(F)c1,> 100 µM (inactive)
20,CC(C)(C)c1ccc(/C=N/NC(=O)c2cc(O)c(O)c(O)c2)cc1,60.8 µM
21,COc1ccc(NC(=O)CCNS(=O)(=O)c2ccc3[nH]c(=O)oc3c2)cc1OC,> 100 µM (inactive)
22,COc1ccc(CNC(=O)CCCNS(=O)(=O)c2ccc3[nH]c(=O)oc3c2)cc1OC,> 100 µM (inactive)

# The next lines start with the values.
row,IC50,Compound
1,> 100 µM (inactive),O=C(NCc1ccc(F)cc1)C1CCCN(S(=O)(=O)c2ccc3[nH]c(=O)oc3c2)C1 (stereo unspecified)
2,> 100 µM (inactive),COc1cccc(CNS(=O)(=O)c2ccc3[nH]c(=O)oc3c2)c1
3,> 100 µM (inactive),O=C(N/N=C/c1c(F)cccc1Cl)c1cc(O)c(O)c(O)c1
4,> 100 µM (inactive),CN(C)c1ccc(CNC(=O)C2CCCN(S(=O)(=O)c3ccc4[nH]c(=O)oc4c3)C2)cc1 (stereo unspecified)
5,> 100 µM (inactive),CSc1cccc(NC(=O)C2CCCN(S(=O)(=O)c3ccc4c(c3)oc(=O)n4C)C2)c1 (stereo unspecified)
6,> 100 µM (inactive),COc1ccc(C(=O)N/N=C/c2c(F)cccc2Cl)cc1OC
7,> 100 µM (inactive),Cc1ccccc1CNC(=O)CCCNS(=O)(=O)c1ccc2[nH]c(=O)oc2c1
8,> 100 µM (inactive),COc1ccc(CCNC(=O)CCCNS(=O)(=O)c2ccc3[nH]c(=O)oc3c2)cc1
9,> 100 µM (inactive),CC(=NNC(=O)c1ccccc1OCCOc1ccccc1)c1ccccc1F
10,> 100 µM (inactive),COc1ccc(CNC(=O)CCNS(=O)(=O)c2ccc3c(c2)CCC3)c(OC)c1
11,> 100 µM (inactive),O=C(CCCNS(=O)(=O)c1ccc2[nH]c(=O)oc2c1)NCc1cccc(F)c1
12,> 100 µM (inactive),Cc1ccc(NC(=O)CCNS(=O)(=O)c2ccc3c(c2)oc(=O)n3C)cc1
13,> 100 µM (inactive),O=C(CCNS(=O)(=O)c1ccc2[nH]c(=O)oc2c1)NCc1ccccc1Cl
14,> 100 µM (inactive),COc1cc(C(=O)N/N=C/c2c(F)cccc2Cl)cc(OC)c1OC
15,> 100 µM (inactive),O=C(CCCNS(=O)(=O)c1ccc2[nH]c(=O)oc2c1)NCCc1ccc(O)cc1
16,> 100 µM (inactive),COc1cccc(C(=O)N/N=C/c2ccccc2F)c1
17,> 100 µM (inactive),O=C(N/N=C/c1cccc(Cl)c1Cl)c1cc(O)c(O)c(O)c1
18,> 100 µM (inactive),O=C(N/N=C/c1c(F)cccc1Cl)c1ccc(O)cc1
19,> 100 µM (inactive),O=C(N/N=C/c1ccc(Br)cc1F)c1cc(O)ccc1O
20,> 100 µM (inactive),O=C(N/N=C/c1ccccc1Cl)c1cc(O)c(O)c(O)c1
21,> 100 µM (inactive),O=C(N/N=C/c1cc(Br)ccc1F)c1ccc(O)cc1
22,> 100 µM (inactive),O=C(CCNS(=O)(=O)c1ccc2ccccc2c1)NCCc1ccc2c(c1)OCO2
23,> 100 µM (inactive),C/C(=N\NC(=O)c1cc(O)c(O)c(O)c1)c1ccc(O)cc1O
24,> 100 µM (inactive),O=C(CCNS(=O)(=O)c1ccc2[nH]c(=O)oc2c1)NCc1ccc(F)cc1

row,IC50,Compound
1,> 100 µM (inactive),O=C(CCNS(=O)(=O)c1ccc2c(c1)CCC2)NCCc1ccc2c(c1)OCO2
2,> 100 µM (inactive),O=C(CCNS(=O)(=O)c1ccc2[nH]c(=O)oc2c1)NCCc1ccc(O)cc1
3,> 100 µM (inactive),COc1ccccc1CNC(=O)CCCNS(=O)(=O)c1ccc2[nH]c(=O)oc2c1
4,> 100 µM (inactive),COc1ccc(C(=O)N/N=C/c2ccccc2F)cc1
5,> 100 µM (inactive),COc1ccc(CNC(=O)CNS(=O)(=O)c2ccc3[nH]c(=O)oc3c2)cc1
6,> 100 µM (inactive),COc1cccc(CNC(=O)CCNS(=O)(=O)c2ccc3[nH]c(=O)oc3c2)c1
7,> 100 µM (inactive),Cc1ccc(C)c(NS(=O)(=O)c2ccc3[nH]c(=O)oc3c2)c1
8,> 100 µM (inactive),COc1ccc(CNS(=O)(=O)c2ccc3[nH]c(=O)oc3c2)cc1
9,> 100 µM (inactive),O=C(CNS(=O)(=O)c1ccc2[nH]c(=O)oc2c1)NCCc1ccc2c(c1)OCO2
10,> 100 µM (inactive),CSc1cccc(NC(=O)CCNS(=O)(=O)c2ccc3c(c2)oc(=O)n3C)c1
11,> 100 µM (inactive),Cc1ccc(CNC(=O)CCNS(=O)(=O)c2ccc3[nH]c(=O)oc3c2)cc1
12,> 100 µM (inactive),COc1ccc(NS(=O)(=O)c2ccc3[nH]c(=O)oc3c2)cc1OC
13,> 100 µM (inactive),O=C(CCNS(=O)(=O)c1ccc2[nH]c(=O)oc2c1)NCc1ccc2c(c1)OCO2
14,> 100 µM (inactive),CCOc1ccc(CNC(=O)C2CCCN(S(=O)(=O)c3ccc4[nH]c(=O)oc4c3)C2)cc1OC (stereo unspecified)
15,> 100 µM (inactive),Cc1ccc(C)c(NC(=O)CCNS(=O)(=O)c2ccc3ccccc3c2)c1
16,> 100 µM (inactive),CCOc1cc(C(=O)N/N=C/c2c(F)cccc2Cl)cc(OCC)c1OCC
17,> 100 µM (inactive),O=C(N/N=C/c1ccccc1C(F)(F)F)c1cc(O)c(O)c(O)c1
18,> 100 µM (inactive),O=C(CCNS(=O)(=O)c1ccc2[nH]c(=O)oc2c1)NCc1ccc(Cl)cc1
19,> 100 µM (inactive),O=C(CCCNS(=O)(=O)c1ccc2[nH]c(=O)oc2c1)NCc1ccccc1Cl
20,> 100 µM (inactive),COc1ccc(CNC(=O)CCNS(=O)(=O)c2ccc3[nH]c(=O)oc3c2)cc1
21,> 100 µM (inactive),COc1ccc(OC)c(NC(=O)C2CCCN(S(=O)(=O)c3ccc4c(c3)oc(=O)n4C)C2)c1 (stereo unspecified)
22,> 100 µM (inactive),COc1ccc(CNC(=O)CCNS(=O)(=O)c2ccc3[nH]c(=O)oc3c2)c(OC)c1
23,> 100 µM (inactive),O=C(N/N=C/c1c(F)cccc1Cl)c1ccc(O)cc1O
